Assay results taken from US10869878B2, “Vaginal composition and use thereof” (SINGAPORE ZE&Z INTERNATIONAL PTE. LTD, priority 2014, dated 2020).
Read-outs that look alike come from different tables or passages of the source.

Tests used:
L. jensenii = conditions: medium with 0.5% (w/v) isomaltulose, pH 5.4
From the text: (§3) The following culture media containing different concentrations of preservatives were formulated with a basal medium containing 0.5% (w/v) isomaltulose, MRS medium without carbohydrate, and 5% (w/v) calf serum:
A. 0.1% (w/v) sodium benzoate
B. 0.2% (w/v) sodium benzoate
C. 0.02% (w/v) sodium dehydroacetate
D. 0.25% (w/v) sodium propionate group
E. 0.5% (w/v) sodium propionate group
(§4) F. 0.02% (w/v) sodium dehydroacetate+0.25% (w/v) sodium propionate group
(§5) G. 0.02% (w/v) sodium dehydroacetate+0.5% (w/v) sodium propionate group
(§6) The culture medium of each group was adjusted to pH 5.4, sterilized and packed in a test tube in a specification of 2 ml/tube.
(§7) (2) Inoculation and incubation of test strains: a bacterial suspension containing (1-5)×10^5 cfu/ml Candida glabrada isolate and a bacterial suspension containing (1-5)×10^5 cfu/ml L. jensenii were inoculated to each tube respectively. The Candida glabrada was aerobically incubated at 37° C. for 72 hrs, and the L. jensenii was microaerophilic incubated for 22 hrs.

Candida glabrada isolate = conditions: medium with 0.5% (w/v) isomaltulose, pH 5.4
From the text: as §3
A. 0.1% (w/v) sodium benzoate
B. 0.2% (w/v) sodium benzoate
C. 0.02% (w/v) sodium dehydroacetate
D. 0.25% (w/v) sodium propionate group
E. 0.5% (w/v) sodium propionate group
as §4, §5, §6, §7

BV = conditions: cited from earlier work; for cure rate for BV: Livengood 2007
BV-associated bacteria [1] = experiment: Acid production by BV-associated bacteria in carbohydrate containing gels, slightly aerobic incubation (Experimental Example 1); format: cell-based; conditions: 1% (w/v) carbohydrate gel
From the text: (1) Grouping in experiment: • (1) Isomaltulose group: containing 1% (w/v) isomaltulose, MRS basal medium without carbohydrate, 5% (w/v) calf serum, and 0.5% (w/v) xanthan gum, pH5.4; • (2) Isomaltose group: containing 1% (w/v) isomaltose, MRS basal medium without carbohydrate, 5% (w/v) calf serum, and 0.5% (w/v) xanthan gum, pH5.4; • (3) Sucrose group: containing 1% (w/v) sucrose, MRS basal medium without carbohydrate, 5% (w/v) calf serum, and 0.5% (w/v) xanthan gum, pH5.4; and • (4) Maltose group: containing 1% (w/v) maltose, MRS basal medium without carbohydrate, 5% (w/v) calf serum, and 0.5% (w/v) xanthan gum, pH5.4.
The gel of each group was formulated essentially following the method described in Composition Example 1, then sterilized, added with calf serum, and packed in test tubes in a specification of 5 g/tube, for late use.
(§1) (2) Secretion specimens from BV patients: vaginal secretions from 5 BV patients; and the criteria of inclusion are: • (1) conforming to the Amsel clinical criteria of BV diagnosis, wherein the pH value of the vaginal secretions was >4.6; • (2) after smearing, Gram staining and microscopical examination of vaginal secretions, Nugent score ≥7; and • (3) no other vaginosis and no antimicrobial agent is used within two weeks.
(3) After sampling, the secretion specimens from BV patients meeting the criteria of inclusion were immediately inoculated to the above 4 gels containing a carbohydrate, and slightly aerobically incubated at 37° C. for 46 hrs. The pH values of the gel matrices are detected with a precise pH test paper respectively at 14 hrs, 36 hrs, and 46 hrs.

BV-associated bacteria [2] = experiment: Acid production by BV-associated bacteria in semi-solid agars containing a carbohydrate, anaerobic incubation (Experimental Example 2); format: cell-based; conditions: 24 hrs anaerobic, 37° C., 1.5% (w/v) carbohydrate, initial pH 5.4
From the text: (1) Grouping in experiment: • (1) Glucose group: containing 1.5% (w/v) glucose, MRS basal medium without carbohydrate, 5% (w/v) calf serum, and 0.45% (w/v) agar, pH5.4; • (2) Fructose group: containing 1.5% (w/v) fructose, MRS basal medium without carbohydrate, 5% (w/v) calf serum, and 0.45% (w/v) agar, pH5.4; • (3) Mannose group: containing 1.5% (w/v) mannose, MRS basal medium without carbohydrate, 5% (w/v) calf serum, and 0.45% (w/v) agar, pH5.4; • (4) Sucrose group: containing 1.5% (w/v) sucrose, MRS basal medium without carbohydrate, 5% (w/v) calf serum, and 0.45% (w/v) agar, pH5.4; • (5) Maltose group: containing 1.5% (w/v) maltose, MRS basal medium without carbohydrate, 5% (w/v) calf serum, and 0.45% (w/v) agar, pH5.4; • (6) Isomaltose group: containing 1.5% (w/v) isomaltose, MRS basal medium without carbohydrate, 5% (w/v) calf serum, and 0.45% (w/v) agar, pH5.4; and • (7) Isomaltulose group: containing 1.5% (w/v) isomaltulose, MRS basal medium without carbohydrate, 5% (w/v) calf serum, and 0.45% (w/v) agar, pH5.4.
The semi-solid agar of each group was formulated essentially following the method described in Composition Example 1, then sterilized, added with calf serum, and packed in test tubes in a specification of 5 g/tube, for late use.
as §1
(3) After sampling, the secretion specimens from BV patients meeting the criteria of inclusion were immediately inoculated to the above 7 aseptic semi-solid agars containing a carbohydrate at the bedside and anaerobically incubated at 37° C. for 24 hrs. The pH values of the agar matrices are detected with a precise pH test paper.

[3] = tested on: Lactobacilli in the secretions from BV patients; experiment: Selective promotion of carbohydrate containing gels for the growth of Lactobacilli, 16s rDNA identification (Experimental Example 4); format: cell-based; conditions: secretions from 20 BV patients; 1% (w/v) carbohydrate gel, 48 hrs slightly aerobic
Protocol: (§2) (3) After sampling, the vaginal secretion specimens from BV patients meeting the criteria of inclusion were immediately inoculated to the above 4 gels containing a carbohydrate, slightly aerobically incubated at 37° C. for 48 hrs, then transferred to a plate containing improved MRS with 1% (w/v) glucose and 5% (w/v) calf serum, slightly aerobically incubated for 20-48 hrs, isolated, purified and multiplied. The strain was identified by 16s rDNA sequencing.

[4] = tested on: Bifidobacteria in the secretions from BV patients; experiment: Selective promotion of carbohydrate containing gels for the growth of Bifidobacteria (Experimental Example 4); format: cell-based; conditions: secretions from 20 BV patients; 1% (w/v) carbohydrate gel, 48 hrs slightly aerobic
Protocol: as §2

[5] = tested on: Gardnerella vaginalis in the secretions from BV patients; experiment: Selective promotion of carbohydrate containing gels for the growth of Gardnerella vaginalis (Experimental Example 4); format: cell-based; conditions: secretions from 20 BV patients; 1% (w/v) carbohydrate gel, 48 hrs slightly aerobic
Protocol: as §2

Canidia albicans = experiment: Metabolization of carbohydrates by Canidia albicans, residual carbohydrate by HPLC (Experimental Example 5); format: cell-based; conditions: for residual carbohydrate content by HPLC: 72 hrs aerobic, 37° C., initial 1.5% (w/v) carbohydrate, pH 7.0, detection limit 0.05% (w/v)
Protocol: (1) Grouping in experiment:
(2) Test strain: 2 strains of Canidia albicans, isolated from patients with candidal vaginitis.
The supernatant was separated by centrifugation, and packed in a specification of 5 ml/tube. The carbohydrate content in each tube was detected by HPLC.

[6] = 0.02% (w/v) sodium dehydroacetate

CCC(=O)[O-].[Na+] [sodium propionate]
turbidity, Lactobacilli (0 hr) (L. jensenii; 0.25% (w/v) sodium propionate): 0.6
turbidity, Lactobacilli (22 hrs) (L. jensenii; 0.25% (w/v) sodium propionate): 5.2
turbidity, Lactobacilli (0 hr) (L. jensenii; 0.5% (w/v) sodium propionate): 0.4
turbidity, Lactobacilli (22 hrs) (L. jensenii; 0.5% (w/v) sodium propionate): 1.7
turbidity, Candida (0 hr) (Candida glabrada isolate; 0.25% (w/v) sodium propionate): 0.5
turbidity, Candida (72 hrs) (Candida glabrada isolate; 0.25% (w/v) sodium propionate): >7.5
turbidity, Candida (0 hr) (Candida glabrada isolate; 0.5% (w/v) sodium propionate): 0.4
turbidity, Candida (72 hrs) (Candida glabrada isolate; 0.5% (w/v) sodium propionate): 6.3

O=C([O-])c1ccccc1.[Na+] [sodium benzoate]
turbidity, Lactobacilli (0 hr) (L. jensenii; 0.1% (w/v) sodium benzoate): 0.6
turbidity, Lactobacilli (22 hrs) (L. jensenii; 0.1% (w/v) sodium benzoate): 0.9
turbidity, Lactobacilli (0 hr) (L. jensenii; 0.2% (w/v) sodium benzoate): 0.7
turbidity, Lactobacilli (22 hrs) (L. jensenii; 0.2% (w/v) sodium benzoate): 0.7
turbidity, Candida (0 hr) (Candida glabrada isolate; 0.1% (w/v) sodium benzoate): 0.6
turbidity, Candida (72 hrs) (Candida glabrada isolate; 0.1% (w/v) sodium benzoate): 7.1
turbidity, Candida (0 hr) (Candida glabrada isolate; 0.2% (w/v) sodium benzoate): 0.6
turbidity, Candida (72 hrs) (Candida glabrada isolate; 0.2% (w/v) sodium benzoate): 2.1

CCS(=O)(=O)CCn1c([N+](=O)[O-])cnc1C [tinidazole]
cure rate for BV (BV; FDA 1998 guideline, both the clinical and microbiological cure standards met): 37%
cure rate for BV (BV; cure if 3 of the 4 traditional Amsel clinical criteria are normal): 57%

OC[C@H]1O[C@H](O[C@H]2[C@H](O)[C@@H](O)C(O)O[C@@H]2CO)[C@H](O)[C@@H](O)[C@@H]1O (mixture of isomers) [Maltose, maltose]
pH of the gel (BV-associated bacteria [1]; Specimen 1, 0 hr (initial)): 5.4
pH of the gel (BV-associated bacteria [1]; Specimen 1, 14 hrs, slightly aerobic, 37° C., initial pH 5.4): 3.8
pH of the gel (BV-associated bacteria [1]; Specimen 1, 46 hrs, slightly aerobic, 37° C., initial pH 5.4): ≤3.8
pH of the gel (BV-associated bacteria [1]; Specimen 2, 0 hr (initial)): 5.4
pH of the gel (BV-associated bacteria [1]; Specimen 2, 14 hrs, slightly aerobic, 37° C., initial pH 5.4): 4.1-4.4
pH of the gel (BV-associated bacteria [1]; Specimen 2, 46 hrs, slightly aerobic, 37° C., initial pH 5.4): ≤3.8
pH of the gel (BV-associated bacteria [1]; Specimen 3, 0 hr (initial)): 5.4
pH of the gel (BV-associated bacteria [1]; Specimen 3, 14 hrs, slightly aerobic, 37° C., initial pH 5.4): 4.1-4.4
pH of the gel (BV-associated bacteria [1]; Specimen 3, 36 hrs, slightly aerobic, 37° C., initial pH 5.4): ≤3.8
pH of the gel (BV-associated bacteria [1]; Specimen 4, 0 hr (initial)): 5.4
pH of the gel (BV-associated bacteria [1]; Specimen 4, 14 hrs, slightly aerobic, 37° C., initial pH 5.4): 4.6
pH of the gel (BV-associated bacteria [1]; Specimen 4, 36 hrs, slightly aerobic, 37° C., initial pH 5.4): ≤3.8
pH of the gel (BV-associated bacteria [1]; Specimen 5, 0 hr (initial)): 5.4
pH of the gel (BV-associated bacteria [1]; Specimen 5, 14 hrs, slightly aerobic, 37° C., initial pH 5.4): 4.1-4.4
pH of the gel (BV-associated bacteria [1]; Specimen 5, 36 hrs, slightly aerobic, 37° C., initial pH 5.4): 4.1-4.4
pH of the semi-solid agar (BV-associated bacteria [2]; Specimen 1): 3.8
pH of the semi-solid agar (BV-associated bacteria [2]; Specimen 2): 3.8
pH of the semi-solid agar (BV-associated bacteria [2]; Specimen 3): 3.8
pH of the semi-solid agar (BV-associated bacteria [2]; Specimen 4): 3.8
pH of the semi-solid agar (BV-associated bacteria [2]; Specimen 5): 3.8
samples positive for Lactobacilli, In total [3]: 8
total number of samples positive for L. amylovorus incubation [3]: 1
total number of samples positive for L. crispatus incubation [3]: 1
total number of samples positive for L. gasseri incubation [3]: 2
total number of samples positive for L. iners incubation [3]: 0
total number of samples positive for L. jensenii incubation [3]: 3
total number of samples positive for L. mucosae incubation [3]: 1
number of samples positive for Bifidobacterium bifidum [4]: 1 (8)
number of samples positive for Bifidobacterium breve [4]: 0
number of samples positive for Bifidobacterium dentium [4]: 0
number of samples positive for Bifidobacterium longum [4]: 0
samples positive for Bifidobacteria, In total [4]: 1
number of samples positive for Gardnerella vaginalis [5]: 6 (2, 6, 7, 9, 15, 19)
samples positive for Gardnerella vaginalis, In total [5]: 6
residual carbohydrate content by HPLC (Canidia albicans; Canidia albicans 1): Not detected^1
residual carbohydrate content by HPLC (Canidia albicans; Canidia albicans 2): Not detected
residual concentration (Canidia albicans; both strains of Canidia albicans, 72 hrs, initial 1.5% (w/v)): below 0.05 % (w/v)

O=C(CO)[C@@H](O)[C@H](O)[C@H](O)CO [Fructose, fructose]
pH of the semi-solid agar (BV-associated bacteria [2]; Specimen 1): 4.6
pH of the semi-solid agar (BV-associated bacteria [2]; Specimen 2): 4.1
pH of the semi-solid agar (BV-associated bacteria [2]; Specimen 3): 3.8-4.1
pH of the semi-solid agar (BV-associated bacteria [2]; Specimen 4): 4.1
pH of the semi-solid agar (BV-associated bacteria [2]; Specimen 5): 3.8

Cc1ncc([N+](=O)[O-])n1CCO [metronidazole]
cure rate (BV; BV patients): about 60%

CC(=O)c1c([O-])cc(C)oc1=O.[Na+] [sodium dehydroacetate]
turbidity, Lactobacilli (0 hr) (L. jensenii; [6]): 0.5
turbidity, Lactobacilli (22 hrs) (L. jensenii; [6]): 1.4
turbidity, Candida (0 hr) (Candida glabrada isolate; [6]): 0.5
turbidity, Candida (72 hrs) (Candida glabrada isolate; [6]): 3.9
